# Assay results from PMC8610377, “Target identification for small-molecule discovery in the FOXO3a tumor-suppressor pathway using a biodiverse peptide library” (Cell Chemical Biology, 2021).
# Key:
# 14-3-3ε = target: T1, 14-3-3ε (Homo sapiens, UniProt P62258); test: STD-NMR; type: binding; settings: 100 μM 9J10, 10 μM 14-3-3ε, 2% d6-DMSO
# T1 sequence (P62258 1-255): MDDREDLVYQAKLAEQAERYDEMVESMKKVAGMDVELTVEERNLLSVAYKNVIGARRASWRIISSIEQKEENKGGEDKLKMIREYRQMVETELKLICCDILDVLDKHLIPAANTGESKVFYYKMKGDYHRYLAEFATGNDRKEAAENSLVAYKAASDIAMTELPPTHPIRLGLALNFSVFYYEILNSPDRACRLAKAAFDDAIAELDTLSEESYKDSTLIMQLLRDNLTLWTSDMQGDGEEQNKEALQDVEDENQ
# Experimental: (§1) Protein purity was visualized by running SDS-PAGE.
# 1H NMR and STD spectra were recorded with a Bruker Avance-III HD 600 MHz at 298 K. Bruker TopSpin software was used to acquire and process the NMR data. NMR samples were prepared in D2O, with 100 μM 9J10 peptide (LNRTPGRRRN(p-Serine)N-acid) (Sigma-Aldrich), and 10 μM 14-3-3ε protein. For STD NMR measurements standard Bruker pulse sequence stddiffesgp.3 was used, the on-resonance frequency was set to be 0 ppm, and the off-resonance frequency at −40 ppm. The number of scans was typically 64, both the saturation pulses and relaxation delay were set to be 5 s and the power of the shaped pulse for saturation was set at 40 dB. Experiments with the varying concentrations of CU7218 were performed by mixing appropriate volume of the compound in DMSO and the final DMSO concentration was adjusted to 2.0% by using d6-DMSO.
# 9J10/14-3-3ε interaction [1] = target: T2, 9J10/14-3-3ε interaction (Homo sapiens, UniProt P62258); test: FP competition, TAMRA-p9J10Min binding to 14-3-3ε; settings: 10nM TAMRA-p9J10Min, His-14-3-3ε 1.5 μM, top concentration 200 μM, 0.4% DMSO; mean of three independent experiments; read-out: IC50, FP
# T2 construct: A synthetic gene construct encoding full length human 14-3-3ε; made in house; host or cells: E. coli BL21(DE3)
# T2 sequence (P62258 1-255): T1 sequence (P62258 1-255)
# Experimental: Protein purity was visualized by running SDS-PAGE. […] Compound dilution plates, black 384 well NBS assay plates and tip racks were loaded into the Cytomat as indicated by the scheduling software. […] Test compounds were diluted to 3X final concentration in the dilution plates. 10 μL of diluted compound was added into each well of the assay plate followed by 10μL of […]-3-3ε and 10μL of TAMRA-p9J10Min. Plates were incubated at room temperature for 20 min on the robot's deck or in the Cytomat before the Fluorescence Polarisation was read using the BMG PheraStar plate reader. Test compounds were assayed in triplicate. […] DMSO controls were run alongside all experimental compounds and % inhibition normalised to these controls. All other experimental conditions were as described above.
# [2] = system: polo-box domain of human polo-like kinase 1 (PLK1); test: selectivity: substrate recognition by polo-box domain; type: binding
# 9J10/14-3-3ε interaction [3] = target: T2, 9J10/14-3-3ε interaction; test: competitive microscale thermophoresis (MST); type: binding; settings: 20 nM labeled 14-3-3ε, 1 μM cognate peptide (EC80), 2% DMSO, 25°C; mean of three independent experiments
# Experimental: as §1
# The 14-3-3ε protein was labeled with NT-647-NHS fluorescent dye using the Monolith Protein Labeling Kit (Cat# MO-L011, NanoTemper Technologies). Assays were carried out in 10 mM Hepes, 150 mM NaCl and 0.01% Tween 20. For the direct binding assay, 10 μL of labeled protein at a final concentration of 20 nM was mixed with 10 μL of cognate peptide. For the competitive assay, 10 μL of labeled protein at a final concentration of 20 nM was mixed with 1 μM of cognate peptide at the EC80 concentration determined by prior titration using a 16-point serial dilution by direct-binding MST. […] An initial ‘‘CapillaryScan’’ was performed to scan for fluorescence across the length of the capillary tray to determine the exact position of each capillary before the MST measurement was started. Test compound in 2% final DMSO concentration was assayed at 16 different concentrations by serial dilution, and data were analyzed using NanoTemper analysis software with ‘‘T-jump + Thermophoresis’’ settings. The change in thermophoresis between different experimental conditions was expressed as the change in the normalized fluorescence (ΔFnorm), which is defined as Fhot/Fcold (F-values correspond to average fluorescence values between defined areas in the curve under steadystate conditions under control (Fcold) or experimental (Fhot) conditions). […]
smiles,measurement,setting,value
Cc1c(C(=O)O)sc2[nH]c(=S)[nH]c(=O)c12 [CU7218],9J10 STD signal intensity with CU7218,14-3-3ε,markedly reduced the 9J10 STD signal intensity
same,lowest CU7218 concentration markedly reducing the 9J10 STD signal,14-3-3ε; tested 50-250 μM,≥ 150 µM
same,IC50,9J10/14-3-3ε interaction [1],111 µM
same,disruption of substrate recognition by PLK1 polo-box domain,[2],failed to disrupt substrate recognition
same,IC50,9J10/14-3-3ε interaction [3],26.5 µM
